Results as given in patent US7786141B2 (Vertex Pharmaceuticals Incorporated, priority 2004, dated 2010).

Assays:
M4 muscarinic receptor = molecular target: T1, M4 muscarinic receptor (Homo sapiens, UniProt P08173); experiment: Functional mobilization of intracellular calcium (FLIPR) in M4-CHO cells; format: cell-based; details: M4 receptor, calcium mobilization; for Emax: read-out: M4 Efficacy
T1 construct: expressed in transfected cells; host or cells: CHO (M4-CHO)
T1 sequence (P08173 1-479): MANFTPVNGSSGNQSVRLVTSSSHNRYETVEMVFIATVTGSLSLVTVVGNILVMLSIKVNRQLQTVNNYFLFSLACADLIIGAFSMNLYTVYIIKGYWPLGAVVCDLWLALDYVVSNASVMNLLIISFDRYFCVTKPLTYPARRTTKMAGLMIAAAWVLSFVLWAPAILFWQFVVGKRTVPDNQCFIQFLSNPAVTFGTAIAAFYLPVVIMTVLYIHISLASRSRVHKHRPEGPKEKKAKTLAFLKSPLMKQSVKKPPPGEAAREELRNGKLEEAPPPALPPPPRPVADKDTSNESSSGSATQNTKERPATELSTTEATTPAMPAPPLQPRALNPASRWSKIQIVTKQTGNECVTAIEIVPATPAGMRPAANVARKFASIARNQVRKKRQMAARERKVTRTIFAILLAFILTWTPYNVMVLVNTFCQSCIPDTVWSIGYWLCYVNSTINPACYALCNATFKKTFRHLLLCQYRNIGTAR
Outline: (§1)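 Intracellular calcium rise is measured by FLIPR fluorescence over 60 sec in CHO cells carrying human M1 or M4 receptors. Compounds are tested alone as agonists, or pre-incubated 15 min (or co-applied) ahead of carbachol at its EC80 to detect inhibition.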

M1 muscarinic receptor = molecular target: T2, M1 muscarinic receptor (Homo sapiens, UniProt P11229); experiment: Functional mobilization of intracellular calcium (FLIPR) in M1-CHO cells; format: cell-based; details: M1 receptor, calcium mobilization; for Emax: read-out: M1 Efficacy
T2 construct: expressed in transfected cells; host or cells: CHO (M1-CHO)
T2 sequence (P11229 1-460): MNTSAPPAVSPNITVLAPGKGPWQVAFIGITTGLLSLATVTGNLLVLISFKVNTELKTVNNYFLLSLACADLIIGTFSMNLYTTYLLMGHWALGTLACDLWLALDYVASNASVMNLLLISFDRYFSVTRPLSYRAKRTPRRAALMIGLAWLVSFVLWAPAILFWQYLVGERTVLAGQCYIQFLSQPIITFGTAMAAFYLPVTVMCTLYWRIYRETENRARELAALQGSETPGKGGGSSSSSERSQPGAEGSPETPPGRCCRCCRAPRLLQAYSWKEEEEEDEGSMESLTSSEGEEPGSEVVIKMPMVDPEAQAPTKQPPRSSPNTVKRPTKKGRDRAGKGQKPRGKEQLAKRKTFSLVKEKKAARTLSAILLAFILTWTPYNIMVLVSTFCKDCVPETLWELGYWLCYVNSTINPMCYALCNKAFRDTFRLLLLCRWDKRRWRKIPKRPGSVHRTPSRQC
Outline: as §1

Row | Structure (SMILES) | M4 Activity (M4 muscarinic receptor) | Emax (M4 muscarinic receptor) [%] | M1 Activity (M1 muscarinic receptor) | Emax (M1 muscarinic receptor) [%]
1 | COC(=O)N1CCC(N2CCC3(CC2)CN(C(=O)N(C)C)c2ccc(F)cc23)CC1 [compound 154] | xxx (activity was measured to be less than 0.1 μM) | > 85 | xxx (activity was measured to be less than 0.1 μM) | 65 to 85
2 | Clc1ccc2c(c1)C1(CCN(C3CCCCC3)CC1)CN2 [compound 155] | x (activity was measured to be greater than 1.0 μM) | > 85 | xxx (activity was measured to be less than 0.1 μM) | > 85
3 | COC(=O)N1C2CCC1CC(N1CCC3(CC1)COc1ccc(F)cc13)C2 (stereo not drawn) [compound 156] | xxx (activity was measured to be less than 0.1 μM) | > 85 | xxx (activity was measured to be less than 0.1 μM) | 65 to 85
4 | Clc1ccc2c(c1)C1(CCN(CC3CCCCC3)CC1)CN2 [compound 157] | x (activity was measured to be greater than 1.0 μM) | > 85 | xxx (activity was measured to be less than 0.1 μM) | 65 to 85
5 | CC(=O)N[C@H]1CC2(CCN(C3C[C@H]4CC[C@@H]3C4)CC2)c2ccccc21 (stereo partly drawn) [compound 158] | x (activity was measured to be greater than 1.0 μM) | > 85 | xxx (activity was measured to be less than 0.1 μM) | > 85
6 | CC(=O)NC1CC2(CCN(C3CCCCCC3)CC2)c2ccccc21 (stereo not drawn) [compound 159] | x (activity was measured to be greater than 1.0 μM) | > 85 | xx (activity was measured to be between 0.1 μM and 1.0 μM) | > 85
7 | CC(C)COC(=O)N1C2CCC1CC(N1CCC3(CC1)COc1ccc(F)cc13)C2 (stereo not drawn) [compound 160] | xx (activity was measured to be between 0.1 μM and 1.0 μM) | > 85 | xxx (activity was measured to be less than 0.1 μM) | > 85
8 | CC(=O)NC1CC2(CCN(C[C@H]3C[C@H]4CC[C@H]3C4)CC2)c2ccccc21 (stereo partly drawn) [compound 161] | x (activity was measured to be greater than 1.0 μM) | > 85 | xx (activity was measured to be between 0.1 μM and 1.0 μM) | > 85
9 | COCCOC(=O)N1C2CCC1CC(N1CCC3(CC1)CN(C(=O)O[C@@H]1CCOC1)c1ccc(F)cc13)C2 (stereo partly drawn) [compound 162] | x (activity was measured to be greater than 1.0 μM) | > 85 | xxx (activity was measured to be less than 0.1 μM) | 65 to 85
10 | CC(=O)N1CC2(CCN(CC3=CCCCC3)CC2)c2cc(F)ccc21 [compound 163] | xx (activity was measured to be between 0.1 μM and 1.0 μM) | > 85 | xxx (activity was measured to be less than 0.1 μM) | 65 to 85
11 | Clc1ccc2c(c1)C1(CCO2)CCN(C[C@@H]2C[C@H]3C=C[C@H]2C3)CC1 [compound 164] | x (activity was measured to be greater than 1.0 μM) | > 85 | xx (activity was measured to be between 0.1 μM and 1.0 μM) | > 85
12 | CCOC(=O)N1CCC(N2CCC3(CC2)CN(C(C)=O)c2ccc(-c4ccsc4)cc23)CC1 [compound 165] | x (activity was measured to be greater than 1.0 μM) | > 85 | x (activity was measured to be greater than 1.0 μM) | 65 to 85
13 | CC(C)OC(=O)N1C2CCC1CC(N1CCC3(CC1)CN(C(=O)OC1CCC1)c1ccc(F)cc13)C2 (stereo not drawn) [compound 166] | x (activity was measured to be greater than 1.0 μM) | > 85 | xxx (activity was measured to be less than 0.1 μM) | > 85
14 | CCOC(=O)N1C2CCC1CC(N1CCC3(CC1)CN(C(=O)OC)c1ccc(F)cc13)C2 (stereo not drawn) [compound 167] | xx (activity was measured to be between 0.1 μM and 1.0 μM) | > 85 | xxx (activity was measured to be less than 0.1 μM) | 65 to 85
15 | CC(=O)N1CC2(CCN(C3CCCN(C(=O)OCCF)CC3)CC2)c2cc(F)ccc21 (stereo not drawn) [compound 168] | xx (activity was measured to be between 0.1 μM and 1.0 μM) | > 85 | xx (activity was measured to be between 0.1 μM and 1.0 μM) | –
16 | CCOC(=O)N1CCC(N2CCC3(CC2)CN(C(=O)N(C)c2ccccc2)c2ccc(F)cc23)CC1 [compound 169] | x (activity was measured to be greater than 1.0 μM) | > 85 | xxx (activity was measured to be less than 0.1 μM) | 65 to 85
17 | CC(C)OC(=O)N1C2CCC1CC(N1CCC3(CC1)CN(S(C)(=O)=O)c1ccc(F)cc13)C2 (stereo not drawn) [compound 170] | x (activity was measured to be greater than 1.0 μM) | > 85 | xx (activity was measured to be between 0.1 μM and 1.0 μM) | 65 to 85
18 | CC(=O)N[C@@H]1CC2(CCN([C@H]3C[C@@H]4CC[C@H]3C4)CC2)c2ccccc21 [compound 171] | x (activity was measured to be greater than 1.0 μM) | 65 to 85 | xx (activity was measured to be between 0.1 μM and 1.0 μM) | > 85
19 | CC(=O)N1CC2(CCN(C3CCN(C(=O)OCCF)CC3)CC2)c2cc(F)ccc21 [compound 172] | x (activity was measured to be greater than 1.0 μM) | 65 to 85 | x (activity was measured to be greater than 1.0 μM) | > 85
20 | CCOC(=O)N1CCC(N2CCC3(CC2)CN(C(=O)OC)c2ccc(F)cc23)CC1 [compound 173] | xx (activity was measured to be between 0.1 μM and 1.0 μM) | > 85 | xxx (activity was measured to be less than 0.1 μM) | 65 to 85
21 | CC(=O)N1CC2(CCN(C3CC4CCC(C3)N4C(=O)OC3CCC3)CC2)c2cc(F)ccc21 (stereo not drawn) [compound 174] | x (activity was measured to be greater than 1.0 μM) | 65 to 85 | xxx (activity was measured to be less than 0.1 μM) | > 85
22 | Fc1ccc2c(c1)C1(CCN([C@@H]3C[C@@H]4CC[C@H]3C4)CC1)CO2 [compound 175] | xx (activity was measured to be between 0.1 μM and 1.0 μM) | 65 to 85 | xxx (activity was measured to be less than 0.1 μM) | 65 to 85
23 | CCOC(=O)N1CCC(CN2CCC3(CC2)COc2ccc(Cl)cc23)CC1 [compound 176] | xx (activity was measured to be between 0.1 μM and 1.0 μM) | 65 to 85 | xx (activity was measured to be between 0.1 μM and 1.0 μM) | > 85
24 | CCOC(=O)N1CCC(N2CCC3(CC2)CN(C(C)=O)c2ccc(-c4ccc(S(C)(=O)=O)cc4)cc23)CC1 [compound 177] | xx (activity was measured to be between 0.1 μM and 1.0 μM) | 65 to 85 | xxx (activity was measured to be less than 0.1 μM) | 65 to 85
25 | Clc1ccc2c(c1)C1(CCO2)CCN(C2CCOCC2)CC1 [compound 178] | x (activity was measured to be greater than 1.0 μM) | 65 to 85 | xx (activity was measured to be between 0.1 μM and 1.0 μM) | > 85
26 | CCOC(=O)N1C2CCC1CC(N1CCC3(CC1)CN(C(=O)C1CCC1)c1ccc(F)cc13)C2 (stereo not drawn) [compound 179] | x (activity was measured to be greater than 1.0 μM) | 65 to 85 | xx (activity was measured to be between 0.1 μM and 1.0 μM) | > 85
27 | CC(=O)NC1CC2(CCN(CC3CC4C=CC3C4)CC2)c2ccccc21 (stereo not drawn) [compound 180] | xxx (activity was measured to be less than 0.1 μM) | 65 to 85 | xxx (activity was measured to be less than 0.1 μM) | 65 to 85
28 | Clc1ccc2c(c1)C1(CCN([C@H]3C[C@@H]4CC[C@H]3C4)CC1)CO2 [compound 181] | x (activity was measured to be greater than 1.0 μM) | 65 to 85 | xx (activity was measured to be between 0.1 μM and 1.0 μM) | 65 to 85
